The record followed here is PMC6934184, “Selective DNA-PKcs inhibition extends the therapeutic index of localized radiotherapy and chemotherapy” (The Journal of Clinical Investigation, 2019).

The structures appear in SMILES notation.

The experiment deals with T1, PIK3CA/PIK3R1 (p110α/p85α) (Homo sapiens, UniProt P42336).
T1 construct: purchased Thermo Fisher Scientific (Life Technologies) SelectScreen
Put plainly: SelectScreen Adapta. Format: biochemical. As for the experimental part: The in vitro kinase selectivity of NU5455 was determined using the SelectScreen Broad Assay Panel (Thermo Fisher Scientific) involving activity and binding assays (Supplemental Table 1). […] Class IA PI3Ks were measured using the p85α subunit.
Kinase [ATP] % Assay Kinase [ATP] % Assay Kinase [ATP] % Assay Kinase [ATP] % Assay
DNA-PK Km app 98.3 Z LATS2 n/a 4.7 L KIT D820E n/a 1.3 L GSK3B (GSK3 beta) Km app -2.5 Z
PIK3C3 (hVPS34) Km app 85.9 A PRKCZ (PKC zeta) Km app 4.7 Z GRK1 n/a 1.3 L BMPR2 n/a -2.5 L
PIK3C2B (PI3K-C2 beta) 10 28.9 A FGFR1 Km app 4.7 Z BRSK2 n/a 1.2 L CDC42 BPB (MRCKB) Km app -2.5 Z
SNF1LK2 Km app 26.6 Z MINK1 Km app 4.6 Z NUAK1 (ARK5) Km app 1.2 A AMPK (A2/B2/G2) n/a -2.6 L
HCK Km app 18.0 Z CSF1R (FMS) Km app 4.3 Z CDK9/cyclin K n/a 1.0 L PRKG1 Km app -2.7 Z
NEK2 Km app 17.8 Z CSNK1G3 (CK1 gamma 3) Km app 4.2 Z NUAK2 n/a 1.0 L KIT T670E n/a -2.8 L
ALK Km app 17.3 Z STK32C (YANK3) n/a 4.2 L CDK2/cyclin O n/a 0.9 L ERBB4 (HER4) Km app -2.8 Z
FGFR3 K650M n/a 16.5 L STK22D (TSSK1) Km app 4.2 Z CAMKK2 (CaMKK beta) n/a 0.9 L PLK4 n/a -2.8 L
SIK3 n/a 16.1 L TAOK3 (JIK) n/a 4.2 L FGFR3 Km app 0.9 Z GRK7 Km app -3.0 Z
LYN A Km app 15.2 Z RPS6KA4 (MSK2) Km app 4.2 Z ULK2 n/a 0.9 L MAPKAPK2 Km app -3.1 Z
BMPR1B (ALK6) n/a 14.5 L PTK2B (FAK2) Km app 4.2 Z KIT D816V n/a 0.9 L FGFR4 Km app -3.1 Z
INSRR (IRR) Km app 14.1 Z CLK2 Km app 4.1 Z CAMK1 (CaMK1) 10 0.8 A CASK n/a -3.1 L
PLK2 Km app 14.1 Z STK24 (MST3) Km app 4.1 Z PTK6 (Brk) Km app 0.7 Z GRK5 Km app -3.2 Z
PRKACA (PKA) Km app 14.0 Z CAMK1D (CaMKI delta) Km app 4.1 Z CAMK2B (CaMKII beta) Km app 0.7 Z EGFR (ErbB1) T790M Km app -3.3 Z
EIF2AK2 (PKR) n/a 13.3 L INSR Km app 4.1 Z ACVR1 (ALK2) n/a 0.7 L PAK4 Km app -3.3 Z
PRKX Km app 12.5 Z IRAK1 Km app 4.0 A ABL1 H396P n/a 0.6 L DAPK3 (ZIPK) Km app -3.4 Z
FGR Km app 12.1 Z SRC N1 Km app 3.9 Z MERTK (cMER) A708S n/a 0.6 L RET M918T n/a -3.5 L
CLK1 Km app 11.7 Z SRPK2 Km app 3.9 Z MAPKAPK5 (PRAK) Km app 0.6 Z PRKCQ (PKC theta) Km app -3.7 Z
MARK3 Km app 11.4 Z RPS6KA6 (RSK4) Km app 3.8 Z AKT1 (PKB alpha) Km app 0.5 Z CAMKK1 (CAMKKA) n/a -3.8 L
PDGFRB (PDGFR beta) Km app 11.0 Z GRK6 Km app 3.7 Z NTRK3 (TRKC) Km app 0.4 Z FLT3 D835Y Km app -3.9 Z
PRKCN (PKD3) Km app 10.7 Z PKN1 (PRK1) Km app 3.6 Z ZAP70 Km app 0.3 Z ROCK2 Km app -4.1 Z
STK16 (PKL12) n/a 10.5 L MAP3K8 (COT) 100 3.5 Z CSNK1A1 (CK1 alpha 1) Km app 0.3 Z CHUK (IKK alpha) Km app -4.2 A
FES (FPS) Km app 10.4 Z FLT4 (VEGFR3) Km app 3.5 Z MYLK (MLCK) n/a 0.2 L AXL Km app -4.2 Z
ABL1 Km app 10.4 Z GRK4 Km app 3.5 Z MKNK2 (MNK2) n/a 0.2 L PIM2 Km app -4.3 Z
MUSK Km app 10.3 Z FRK (PTK5) Km app 3.4 Z AMPK (A1/B1/G3) n/a 0.2 L PAK1 Km app -4.4 Z
MAPK1 (ERK2) Km app 10.1 Z FYN A n/a 3.3 L MAP3K2 (MEKK2) n/a 0.1 L BMPR1A (ALK3) n/a -4.4 L
BRAF 100 9.9 Z CDK1/cyclin A2 n/a 3.3 L CDK8/cyclin C n/a 0.1 L STK4 (MST1) Km app -4.4 Z
IGF1R Km app 9.7 Z KIT V559D T670I n/a 3.1 L MARK2 Km app 0.1 Z PRKCH (PKC eta) Km app -4.6 Z
MAPK14 (p38 alpha) Km app 9.7 Z SPHK2 10 3.1 A ICK n/a 0.0 L SGKL (SGK3) Km app -4.6 Z
LCK Km app 9.6 Z FGFR3 G697C n/a 3.1 L FGFR2 Km app 0.0 Z PI4KB (PI4K beta) Km app -4.7 A
MAPK11 (p38 beta) Km app 9.5 Z RIPK2 n/a 3.1 L AKT2 (PKB beta) Km app 0.0 Z PRKCE (PKC epsilon) Km app -4.9 Z
SRC Km app 9.5 Z PAK6 Km app 3.0 Z EPHB2 Km app -0.1 Z PHKG1 Km app -5.0 Z
CHEK1 (CHK1) Km app 9.3 Z LYN B Km app 3.0 Z TGFBR2 n/a -0.1 L PDGFRA D842V Km app -5.0 Z
CAMK2D (CaMKII delta) Km app 9.3 Z DAPK2 n/a 2.9 L TEK (Tie2) Km app -0.1 Z PRKG2 (PKG2) Km app -5.1 Z
PLK1 Km app 9.2 Z EPHA4 Km app 2.9 Z AURKA (Aurora A) Km app -0.1 Z TYRO3 (RSE) Km app -5.1 Z
RET Y791F Km app 9.2 Z PIK3CG (p110 gamma) Km app 2.9 A KIT D816H n/a -0.2 L TAOK2 (TAO1) Km app -5.1 Z
FLT3 Km app 9.1 Z HIPK1 (Myak) Km app 2.8 Z KIT N822K n/a -0.2 L EPHB4 Km app -5.3 Z
MAPK10 (JNK3) 100 9.0 Z ADRBK2 (GRK3) Km app 2.8 Z PRKACG (PRKAC gamma) n/a -0.2 L AURKC (Aurora C) Km app -5.4 Z
CSNK2A2 (CK2 alpha 2) Km app 8.7 Z STK17B (DRAK2) n/a 2.7 L TEK (TIE2) Y1108F n/a -0.3 L JAK1 Km app -5.7 Z […]

T1 sequence (P42336 whole entry): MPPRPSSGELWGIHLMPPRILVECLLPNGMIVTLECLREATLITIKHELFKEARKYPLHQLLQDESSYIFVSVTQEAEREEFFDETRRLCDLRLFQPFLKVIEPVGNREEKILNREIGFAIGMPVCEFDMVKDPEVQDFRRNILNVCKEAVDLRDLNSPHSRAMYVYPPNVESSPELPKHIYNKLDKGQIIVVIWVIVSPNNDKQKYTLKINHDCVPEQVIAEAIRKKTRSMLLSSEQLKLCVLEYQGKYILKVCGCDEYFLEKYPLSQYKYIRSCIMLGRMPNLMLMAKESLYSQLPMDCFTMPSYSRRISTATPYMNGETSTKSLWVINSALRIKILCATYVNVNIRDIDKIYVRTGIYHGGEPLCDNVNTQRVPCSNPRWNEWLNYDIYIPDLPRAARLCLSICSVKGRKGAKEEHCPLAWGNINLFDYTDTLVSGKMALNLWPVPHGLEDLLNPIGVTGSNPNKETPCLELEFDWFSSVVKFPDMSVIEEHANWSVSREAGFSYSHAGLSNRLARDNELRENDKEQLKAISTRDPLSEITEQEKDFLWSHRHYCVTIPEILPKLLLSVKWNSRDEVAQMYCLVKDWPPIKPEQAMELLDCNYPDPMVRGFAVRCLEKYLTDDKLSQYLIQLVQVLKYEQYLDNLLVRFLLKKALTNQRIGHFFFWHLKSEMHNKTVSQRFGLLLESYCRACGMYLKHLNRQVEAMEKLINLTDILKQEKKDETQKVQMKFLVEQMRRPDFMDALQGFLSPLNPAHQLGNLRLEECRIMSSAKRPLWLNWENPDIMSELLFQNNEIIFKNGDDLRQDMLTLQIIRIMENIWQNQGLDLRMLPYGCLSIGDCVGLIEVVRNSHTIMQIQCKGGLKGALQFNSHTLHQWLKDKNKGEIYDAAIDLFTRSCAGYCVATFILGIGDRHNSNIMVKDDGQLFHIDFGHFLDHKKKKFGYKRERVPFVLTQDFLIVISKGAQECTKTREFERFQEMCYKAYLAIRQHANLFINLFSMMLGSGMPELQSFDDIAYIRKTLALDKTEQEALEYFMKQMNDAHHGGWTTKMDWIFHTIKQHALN
T1 sequence (P27986 whole entry partner): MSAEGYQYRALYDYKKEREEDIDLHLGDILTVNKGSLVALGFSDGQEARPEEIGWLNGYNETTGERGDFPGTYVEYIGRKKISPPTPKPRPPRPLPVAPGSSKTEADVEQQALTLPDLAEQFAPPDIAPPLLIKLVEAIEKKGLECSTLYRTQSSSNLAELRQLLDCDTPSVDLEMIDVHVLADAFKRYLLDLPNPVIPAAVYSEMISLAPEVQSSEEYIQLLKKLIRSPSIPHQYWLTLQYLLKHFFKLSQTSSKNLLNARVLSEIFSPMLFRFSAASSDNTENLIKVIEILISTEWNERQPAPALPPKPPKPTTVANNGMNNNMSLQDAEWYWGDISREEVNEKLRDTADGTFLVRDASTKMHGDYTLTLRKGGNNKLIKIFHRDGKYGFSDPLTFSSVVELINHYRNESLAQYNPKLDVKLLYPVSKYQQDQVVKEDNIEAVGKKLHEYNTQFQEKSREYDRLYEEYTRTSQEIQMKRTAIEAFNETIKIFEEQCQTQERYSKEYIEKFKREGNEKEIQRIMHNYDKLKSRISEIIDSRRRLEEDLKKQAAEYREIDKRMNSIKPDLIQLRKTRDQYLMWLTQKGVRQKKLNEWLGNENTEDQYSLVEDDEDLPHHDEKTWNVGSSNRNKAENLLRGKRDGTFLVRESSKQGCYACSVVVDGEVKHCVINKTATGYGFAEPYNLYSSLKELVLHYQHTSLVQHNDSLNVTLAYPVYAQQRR

For orientation: inhibition means how much of the control response was suppressed. Take `CN(C(=O)CN1CCOCC1)c1ccc2sc3c(-c4cccc5c(=O)cc(N6CC7CCC(C6)O7)oc45)cccc3c2c1` [NU5455]: the inhibition at 1 µM was 4.2%.
